Laboratory results published in patent US5280015A, “2-substituted adenosines and 2-substituted adenosine 5'-carboxamides” (priority 1990, dated 1994).
Values joined by “and” are separate entries in the source; they are usually repeats but may differ in a detail not shown here. Identical values can stand only once. Counter-ions that a name gives are not always drawn. Like-named read-outs stand apart in the source and are kept apart here.

Legend:
[1] = system: locomotor activity in NIH mice; test: Locomotor depression by A2 adenosine agonists in mice (Digiscan activity monitor); type: in vivo, mouse; conditions: for reversal of APEC locomotor depression by antagonist: antagonist injected before APEC, 8-cyclopentyltheophylline 10 mg/kg; for ED50: Mus musculus, read-out: ED50, locomotor depression; for ED50 / locomotor depression (% decrease in horizontal activity from vehicle control): ip
A2-adenosine receptors [2] = molecular target: T1, A2-adenosine receptors (Rattus norvegicus, UniProt P30543); test: Inhibition of binding of [3H]NECA to A2-adenosine receptors in rat striatal membranes
T1 construct: rat striatal membranes; from tissue; host or cells: rat striatal membranes
Experimental: (§1) Stock solutions of representative compounds of the present invention in the millimolar concentration range in dimethylsulfoxide were prepared for the binding assays. […] Protein was determined using the BCA (based on the complex with cuprous ions and bicinchoninic acid) protein assay reagents purchased from Pierce Chemical Co., Rockford, Ill.
N^6 -Cyclopentyladenosine was present at 50 nM to inhibit binding of the ligand at A1 -adenosine receptors.

A2-adenosine receptors [3] = molecular target: T1, A2-adenosine receptors; test: Inhibition of binding of [3H]CGS21680 to A2-adenosine receptors in rat striatal membranes
Experimental: as §1
The membrane suspension was then centrifuged at 37,000×g for 20 min at 4° C. The pellet was resuspended in buffer containing 2 IU/ml adenosine deaminase, Type VI from calf intestinal mucosa (Sigma, St. Louis, Mo.) to 20 mg/ml original tissue weight and incubated at 37° C. for 30 min. The membrane homogenate was recentrifuged as before, and the pellet was stored frozen at -70° C. until use.
For competitive binding assays using [^3 H]CGS21680, a volume of 1 ml was used in each 13×100 mm glass tube. […] The mixture was incubated with shaking for 90 min at 24° C. The samples were filtered on a Brandel Cell Harvester (Brandel, Gaithersburg, Md.) with Whatman GF/B filters, and washed rapidly twice with 5 ml of ice cold 50 mM Tris, pH 7.4. Each filter disc was added to 4 ml of scintillation fluid, vortexed, and counted after 6 hours.

A1-adenosine receptors = molecular target: T2, A1-adenosine receptors (Rattus norvegicus, UniProt P25099); test: Competitive binding assay at A1-adenosine receptors, rat cerebral cortex membranes ([3H]PIA or [3H]CHA)
T2 construct: rat cerebral cortex membranes; from tissue; host or cells: rat cerebral cortex membranes
T2 sequence (P25099 1-326): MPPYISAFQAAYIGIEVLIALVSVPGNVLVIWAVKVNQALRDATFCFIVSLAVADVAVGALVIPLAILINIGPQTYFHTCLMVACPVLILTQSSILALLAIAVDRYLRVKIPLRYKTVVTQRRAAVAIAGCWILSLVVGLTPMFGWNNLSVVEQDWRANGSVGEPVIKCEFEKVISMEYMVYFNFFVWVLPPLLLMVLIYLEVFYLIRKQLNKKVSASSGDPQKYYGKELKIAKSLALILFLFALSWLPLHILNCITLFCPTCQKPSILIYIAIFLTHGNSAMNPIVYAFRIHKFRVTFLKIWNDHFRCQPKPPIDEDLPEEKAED

A2-adenosine receptors [4] = test: Competitive binding assay in bovine brain using 125I-PAPA-APEC (striatal membranes); conditions: for Ki (A1)/K1 (A2): ratio of Ki at A1-receptors (rat) versus Ki in the 125I-PAPA-APEC assay (bovine)
Experimental: (§2) The filters were washed with three×3 ml aliquots of pH 7.2 buffer containing 50 mM HEPES, 10 mM Mg^+2, and 0.05% CHAPS. The filters were placed in polypropylene tubes and counted in a Packard gamma counter.

A2 adenosine receptors = A2 adenosine receptors (Bos taurus, UniProt E1BKU0); test: as above; set-up: Bovine striatal membranes; from tissue; host or cells: bovine (calf) striatal membranes
Experimental: as §2

[5] = rat, [3H]N6-cyclohexyladenosine (footnote c), read-out: Ki, inhibition of binding at A1-receptors using [3H]N6-cyclohexyladenosine
[6] = read-out: Ki, inhibition of binding of [3H]CGS21680 at A2-receptors
[7] = bovine striatum; 11, 12 and 14: apparent Ki; read-out: Ki, inhibition of binding of 125I-PAPA-APEC at A2-receptors
[8] = rat, [3H]PIA, read-out: Ki, inhibition of binding of [3H]PIA at A1-receptors
[9] = rat striatum, 11, 12 and 14: apparent Ki, read-out: Ki, inhibition of binding of [3H]CGS21680 at A2-receptors
[10] = bovine brain A2; relative to compounds with Ki less than 10 nM
[11] = Ki, inhibition of binding of 125I-PAPA-APEC at A2-receptors, bovine striatum; 11, 12 and 14: apparent Ki

Sequence of A2 adenosine receptors (E1BKU0 1-401): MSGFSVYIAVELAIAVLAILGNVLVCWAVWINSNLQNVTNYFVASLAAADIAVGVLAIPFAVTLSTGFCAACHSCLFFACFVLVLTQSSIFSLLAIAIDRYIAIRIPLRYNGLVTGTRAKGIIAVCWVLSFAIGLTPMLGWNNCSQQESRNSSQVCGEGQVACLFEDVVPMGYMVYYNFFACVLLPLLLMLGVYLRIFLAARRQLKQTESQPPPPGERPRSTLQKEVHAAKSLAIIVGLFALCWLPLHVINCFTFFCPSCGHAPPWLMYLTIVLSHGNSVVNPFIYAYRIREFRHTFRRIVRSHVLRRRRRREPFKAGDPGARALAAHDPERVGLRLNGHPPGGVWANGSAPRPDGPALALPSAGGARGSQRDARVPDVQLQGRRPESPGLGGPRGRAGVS
T1 sequence (P30543 whole entry): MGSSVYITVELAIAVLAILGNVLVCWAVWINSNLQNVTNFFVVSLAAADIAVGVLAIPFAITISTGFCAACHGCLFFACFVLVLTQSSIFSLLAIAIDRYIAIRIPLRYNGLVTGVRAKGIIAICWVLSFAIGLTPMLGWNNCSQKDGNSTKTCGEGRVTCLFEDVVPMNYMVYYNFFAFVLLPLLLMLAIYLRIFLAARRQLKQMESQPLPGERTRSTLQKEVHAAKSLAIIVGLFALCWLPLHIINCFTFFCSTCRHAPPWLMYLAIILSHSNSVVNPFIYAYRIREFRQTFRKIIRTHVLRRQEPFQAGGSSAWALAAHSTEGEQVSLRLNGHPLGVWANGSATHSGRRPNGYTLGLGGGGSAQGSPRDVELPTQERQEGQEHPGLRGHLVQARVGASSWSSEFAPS

| SMILES | Ki (A1)/K1 (A2) (A2-adenosine receptors [4]) | Ki (A2-adenosine receptors [3]; [6]) | Ki (A2 adenosine receptors; [7]) | Ki (A1-adenosine receptors; [8]) | further results |
| --- | --- | --- | --- | --- | --- |
| CCCn1c(=O)c2[nH]c(C3CCCC3)nc2n(CCC)c1=S [8-cyclopentyl-1,3-dipropyl-2-thioxanthine] | – | – | – | – | reversal of APEC locomotor depression by antagonist ([1]; mice): not |
| Cn1c(=O)c2[nH]c(C3CCCC3)nc2n(C)c1=O [8-cyclopentyltheophylline] | – | – | – | – | reversal of APEC locomotor depression by antagonist ([1]; mice): not |
| NCCNC(=O)Cc1ccc(NC(=O)Cc2ccc(Nc3ncnc4c3ncn4[C@@H]3O[C@H](CO)[C@@H](O)[C@H]3O)cc2)cc1 [ADAC, reference compound] | – | – | – | – | Ki (A2-adenosine receptors [2]): 210 nM; Ki (A2-adenosine receptors [3]): 218 ± 28 nM |
| OC[C@H]1O[C@@H](n2cnc3c(NC4CCCCC4)ncnc32)[C@H](O)[C@@H]1O [CHA, N^6 -cyclohexyladenosine] | – | – | – | – | ED50 ([1]; mice, i.p., from dose response curves): 0.06 mg/kg; reversal of agonist-elicited locomotor depression by A1-selective antagonists ([1]; mice, agonist with A1-selective antagonists): reversed by A1 -selective antagonists |
| CCNC(=O)[C@H]1O[C@@H](n2cnc3c(N)nc(NCCc4ccc(CCC(=O)OC)cc4)nc32)[C@H](O)[C@@H]1O [Compound 2] | 370 | 5 ± 2 nM | < 10 nM and 6.1 nM | – | Ki (A1-adenosine receptors; [5]): 2260 ± 440 nM; Ki (A2-adenosine receptors [2]): 17.5 ± 1.6 nM |
| CCNC(=O)[C@H]1O[C@@H](n2cnc3c(N)nc(NCCc4ccc(CCC(=O)NCCN)cc4)nc32)[C@H](O)[C@@H]1O [Compound 3] | 16 | 12 ± 3 nM | < 10 nM and 6.1 nM | 235 ± 54 nM | Ki (A2-adenosine receptors [2]; read-out: Ki, inhibition of binding of [3H]NECA at A2-receptors, rat striatum, 11, 12 and 14: apparent Ki): 5.73 ± 0.52 nM; ED50 [1]: 0.016 mg/kg; locomotor depression ([1]; mice, i.p., horizontal activity and total distance traveled): potent locomotor depressant in mice in a dose-dependent manner |
| CCNC(=O)[C@H]1O[C@@H](n2cnc3c(N)nc(NCCc4ccc(CCC(=O)NCCNC(=O)CCc5ccc(O)cc5)cc4)nc32)[C@H](O)[C@@H]1O [Compound 4] | 72 | 13 ± 4 nM | 13.2 ± 1.5 nM | – | Ki (A1-adenosine receptors; [5]): 950 ± 100 nM; locomotor depression (% decrease in horizontal activity from vehicle control) ([1]; mouse, in vivo): 44±7% |
| CCNC(=O)[C@H]1O[C@@H](n2cnc3c(N)nc(NCCc4ccc(CCC(=O)NCCNC(=O)Cc5cccs5)cc4)nc32)[C@H](O)[C@@H]1O [Compound 5] | 66 | 15 ± 1 nM | 21.3 ± 7.9 nM | – | Ki (A1-adenosine receptors; [5]): 1400 ± 100 nM; locomotor depression (% decrease in horizontal activity from vehicle control) ([1]; mouse, in vivo): 49±9% |
| CCNC(=O)[C@H]1O[C@@H](n2cnc3c(N)nc(NCCc4ccc(CCC(=O)NCCNC(=O)Cc5ccc(NC(=O)OCc6ccccc6)cc5)cc4)nc32)[C@H](O)[C@@H]1O [Compound 7] | 45 | 37 ± 5 nM | < 10 nM and 6.2 nM | 278 ± 18.7 nM | Ki (A2-adenosine receptors [2]): 5.59 ± 0.99 nM |
| CCNC(=O)[C@H]1O[C@@H](n2cnc3c(N)nc(NCCc4ccc(CCC(=O)NCCNC(=O)c5cccc(N)c5)cc4)nc32)[C@H](O)[C@@H]1O [Compound 8] | 31 | – | 43.6 ± 5.2 nM | 1340 ± 28 nM | Ki (A2-adenosine receptors [3]; [9]): 16.5 ± 2.8 nM; potency in displacing 125I-PAPA-APEC binding (A2 adenosine receptors; [10]): less potent |
| CCNC(=O)[C@H]1O[C@@H](n2cnc3c(N)nc(NCCc4ccc(CCC(=O)NCCNC(=O)c5cccc(NC(=O)OCc6ccccc6)c5)cc4)nc32)[C@H](O)[C@@H]1O [Compound 9] | 78 | 12 ± 2 nM | < 10 nM and 8.7 nM | – | Ki (A1-adenosine receptors; [5]): 680 ± 110 nM |
| CCNC(=O)[C@H]1O[C@@H](n2cnc3c(N)nc(NCCc4ccc(CCC(=O)NCCNC(=O)CCCC[C@@H]5SC[C@@H]6NC(=O)N[C@@H]65)cc4)nc32)[C@H](O)[C@@H]1O [Compound 10] | > 350 | 55 ± 30 nM | 14.3 ± 3.3 nM | – | Ki (A1-adenosine receptors; [5]): > 5000 nM |
| CCNC(=O)[C@H]1O[C@@H](n2cnc3c(N)nc(NCCc4ccc(CCC(=O)NCCNC(=S)Nc5cccc(N=C=S)c5)cc4)nc32)[C@H](O)[C@@H]1O [Compound 11] | 11 | – | – | – | Ki (A1-adenosine receptors): 69.7 ± 7.9 nM; Ki (A2-adenosine receptors [2]): 2.82 ± 0.38 nM; Ki (A2-adenosine receptors [3]): 22 ± 7 nM; Ki (A2 adenosine receptors; [11]): < 10 nM and 6.2 nM |
| CCNC(=O)[C@H]1O[C@@H](n2cnc3c(N)nc(NCCc4ccc(CCC(=O)NCCNC(=S)Nc5ccc(N=C=S)cc5)cc4)nc32)[C@H](O)[C@@H]1O [Compound 12] | 39 | – | – | – | Ki (A1-adenosine receptors): 276 ± 75 nM; Ki (A2-adenosine receptors [3]): 35 ± 10 nM; Ki (A2 adenosine receptors; [11]): < 10 nM and 7.1 nM |
| CCNC(=O)[C@H]1O[C@@H](n2cnc3c(N)nc(NCCc4ccc(CCC(=O)NCCNC(=S)Nc5ccc(S(=O)(=O)O)cc5)cc4)nc32)[C@H](O)[C@@H]1O [Compound 13, 2-[4-[2-[2-[4-(Sulfophenylthioureidyl)]-ethylaminocarbonyl]ethyl]phenyl]ethylamino]-5'-N-ethylcarboxamidoadenosine sodium salt] | 347 | – | 10.9 ± 2.3 nM | 3780 ± 800 nM | selectivity for A2 receptors (A2-adenosine receptors [4]; A2 versus A1): more than 200 fold; Ki (A2-adenosine receptors [3]; [9]): 26 ± 10 nM; locomotor depression (% decrease in horizontal activity from vehicle control) ([1]; mouse, in vivo): 41±5% |
| CCNC(=O)[C@H]1O[C@@H](n2cnc3c(N)nc(NCCc4ccc(CCC(=O)NCCNC(=O)CBr)cc4)nc32)[C@H](O)[C@@H]1O [Compound 14] | 125 | 69.7 nM | 15.8 ± 4.8 nM | 1980 ± 102 nM | – |
| CCNC(=O)[C@H]1O[C@@H](n2cnc3c(N)nc(NCCc4ccc(CCC(=O)NCCNC(=S)NC5CC(C)(C)N([O])C(C)(C)C5)cc4)nc32)[C@H](O)[C@@H]1O [Compound 15] | – | – | – | – | Ki (A1-adenosine receptors; read-out: Ki, inhibition of binding at A1-receptors using [3H]N6-cyclohexyladenosine, rat, [3H]N6-cyclohexyladenosine (footnote c)): 177 ± 38 nM; Ki (A2-adenosine receptors [3]; read-out: Ki, inhibition of binding of [3H]CGS21680 at A2-receptors, rat striatum, 11, 12 and 14: apparent Ki): 27 ± 3 nM; Ki (A2 adenosine receptors; read-out: Ki, inhibition of binding of 125I-PAPA-APEC at A2-receptors; bovine striatum; 11, 12 and 14: apparent Ki): 14.8 ± 3.6 nM |
| CCNC(=O)[C@H]1O[C@@H](n2cnc3c(N)nc(NCCc4ccc(CCC(=O)NCCCCNC(=O)c5ccc(CF)cc5)cc4)nc32)[C@H](O)[C@@H]1O [Compound 16] | 57 | 18.9 ± 4.9 nM | 25.4 ± 7.6 nM | 1450 ± 67 nM | locomotor depression (% decrease in horizontal activity from vehicle control) ([1]; […]): 50±4%; potency in displacing 125I-PAPA-APEC binding (A2 adenosine receptors; [10]): less potent |
| CCNC(=O)[C@H]1O[C@@H](n2cnc3c(N)nc(NCCc4ccc(CCC(=O)NCCNc5ccc([N+](=O)[O-])c6nonc56)cc4)nc32)[C@H](O)[C@@H]1O [Compound 17] | – | – | 31.6 ± 1.3 nM | – | affinity at A2-adenosine receptors (A2-adenosine receptors [4]; fluorescent probes, derivatives in general): high affinity |
| Cn1c(=O)c2[nH]cnc2n(C)c1=O [theophylline] | – | – | – | – | total distance traveled restored, % of control ([1]; antagonist 10 mg/kg, at the ED50 dose of APEC, mice): 95±12 % of control; reversal of APEC locomotor depression by antagonist ([1]; mice): reversible by theophylline |
